Assay results from PMC6410164, “Isolation and Structure-Activity Relationship of Subergorgic Acid and Synthesis of Its Derivatives as Antifouling Agent” (Marine Drugs, 2019).
Converted amounts (≈) assume the structure as drawn. Where two headings read alike, the source gives them in different places.

How the values were obtained:
[1] = tested on: barnacle larvae; conditions: cited from earlier work
[2] = tested on: B. amphitrite; experiment: Larval settlement (antifouling) assay with cyprids of the barnacle B. amphitrite; assay type: in vivo, Balanus amphitrite; conditions: Amphibalanus amphitrite, 48 h, read-out: EC50 (μg/mL), inhibition of settlement of B. amphitrite
Method: The antifouling activity was examined using cyprids of the barnacle B. amphitrite Darwin according to the method reported previously. Briefly, adults of B. amphitrite, collected from the intertidal zone in Hong Kong, were exposed to air for more than 6 h, and were then placed in a container filled with 0.22 µm filtered seawater (FSW) to release nauplii. The collected nauplii were raised to cyprid stage using the method described by Thiyagarajan et al.. Fresh cyprids were used in the test. Larval settlement assays were examined using 24-well polystyrene plates. The tested samples were first dissolved with small amount of dimethyl sulfoxide (DMSO) and then diluted with FSW to achieve final concentrations at 25.0, 12.5, 6.25, 3.13, 1.57, 0.78, 0.39, 0.19, 0.1, and 0.05 µg/mL. About 15−20 competent larvae were added to each well containing 1 mL of test solution in triplicate, and wells containing only FSW, DMSO, and larvae served as a control. The plates were incubated at 25 °C for 48 h. The effects of the test samples against biofouling were determined by examining the plates under a microscope to count settled, unsettled, and swimming larvae, and where appropriate, potential toxic effects were recorded. The number of settled larvae was expressed as a percentage of the total number of larvae per well. Three replicates of each treatment were performed. A concentration-response curve was then made and a trend line was constructed for each compound. EC50 was calculated as the concentration where 50% of the larval individual was inhibited to settle as compared to the control while LC50 was calculated as the concentration where 50% of the larval population was dead. […] For the purposes of this study, adults of the barnacle B. amphitrite were scraped off from the concrete posts at a pier of Pak Sha Wan, Kowloon, Hong Kong (22°21′45″N, 114°15′35″E), where only limited quantity of B. amphitrite could be collected during the period of our experiment because of the relatively hot weather and artificial disturbing of nearby construction work.

[3] = Toxicity toward larvae in the settlement assay (LC50); conditions: Balanus amphitrite (barnacle), cyprid larvae, in vivo, other: immersion of larvae in test solution, B. amphitrite larvae, highest concentration tested 25 μg/mL
Method: The antifouling activity was examined using cyprids of the barnacle B. amphitrite Darwin according to the method reported previously. Briefly, adults of B. amphitrite, collected from the intertidal zone in Hong Kong, were exposed to air for more than 6 h, and were then placed in a container filled with 0.22 µm filtered seawater (FSW) to release nauplii. The collected nauplii were raised to cyprid stage using the method described by Thiyagarajan et al.. Fresh cyprids were used in the test. Larval settlement assays were examined using 24-well polystyrene plates. […] About 15−20 competent larvae were added to each well containing 1 mL of test solution in triplicate, and wells containing only FSW, DMSO, and larvae served as a control. The plates were incubated at 25 °C for 48 h. The effects of the test samples against biofouling were determined by examining the plates under a microscope to count settled, unsettled, and swimming larvae, and where appropriate, potential toxic effects were recorded. The number of settled larvae was expressed as a percentage of the total number of larvae per well. Three replicates of each treatment were performed. A concentration-response curve was then made and a trend line was constructed for each compound.

[4] = tested on: naupliar larvae of several barnacles; parameters: method as in PMID 12031437; conditions: cited from earlier work
[5] = tested on: B. amphitrite; parameters: method as in PMID 18075899; conditions: reported by Qi et al. ref 21; cited from earlier work
[6] = tested on: B. amphitrite; conditions: reported by Qi et al. ref 21; cited from earlier work
[7] = cyprids, 24-well plates, 25 °C, average of triplicate ± SD, highest concentration 25 μg/mL

SMILES	EC50 [2, 7] [µg/mL]	LC50 at 48 h [3] [µg/mL]	other results
Oc1c(Br)cc(Br)cc1Cc1ccc(Br)cc1Br [2,4-dibromo-6-(2,4-dibromobenzyl)phenol]	–	–	EC50 ([1]; read-out: EC50, settlement inhibition against barnacle larvae): 1260 nM
OCc1cc(O)cc(Cl)c1O [3-chloro-2,5-dihydroxybenzylalcohol]	–	–	EC50, settlement inhibition against barnacle larvae [1]: 3.19 to 3.81 µg/mL
COC(=O)C1=CC2(C)CCC3C(C)CC(=O)C32C1C (stereo not drawn) [Compound 1]	3.16 ± 0.18 (≈ 12 µM)	> 25	–
COC(=O)C1=CC2(C)CCC3C(C)CC(O)C32C1C (stereo not drawn) [Compound 2]	10 ± 0.13 (≈ 37.9 µM)	> 25	–
CC1CC(O)C23C(C)C(C(=O)O)=CC2(C)CCC13 (stereo not drawn) [Compound 3]	> 25	> 25	–
CC1CC(=O)C23C1CCC2(C)C1OC1(C(=O)O)C3C (stereo not drawn) [Compound 4]	> 25	> 25	–
O=C1O[C@@H](Cc2ccccc2)C(Cc2ccccc2)=C1Cc1ccccc1 [Maculalactone A]	–	–	EC50 against naupliar larvae of several barnacles [4]: 1.1 to 5.2 µg/mL
CC1CC(=O)C23C(C)C(C(=O)O)=CC2(C)CCC13 (stereo not drawn) [SA, subergorgic acid]	–	> 25	EC50, settlement of B. amphitrite [5]: 1.2 µg/mL; EC50 [2]: 1.25 ± 0.14 µg/mL (≈ 5.03 µM); LC50 [6]: > 200 µg/mL
